Read-outs that look alike come from different tables or passages of the source.
Assays:
[1] = test system: multiresistant Dd2 strain of Plasmodium falciparum; experiment: Antiplasmodial activity against Dd2 strain of Plasmodium falciparum ([8-3H]hypoxanthine incorporation); assay type: cell-based; conditions: 66 h, P. falciparum Dd2, 48 h + 18 h with [8-3H]hypoxanthine, 50% parasite growth inhibition, read-out: Antiplasmodia activity (IC50 class)
Protocol: For the determination of the antiplasmodial activity of the compounds described above, the multiresistant Dd2 strain of Plasmodium falciparum was used. The incorporation of [8-^3H]hypoxanthine into the parasitic nucleic acids was measured. The plasmodia were incubated at 0.3% parasitaemia and an erythrocyte haematocrit of 2.5% in the presence of different concentrations of the compounds in a final volume of 200 μl. The medium employed was RPMI 1640 which contained 10% of heat-treated human serum and 3 mg/l of gentamycin. In the incubations, the concentrations of the compounds varied from 0.001 to 100 μM. After 48 h, each batch was treated with 50 μl of [8-^3H]hypoxanthine (1 mCi/ml) and incubated for a further 18 h. The cells were filtered off, washed and suspended in 20 μl of scintillation fluid. The radioactive hypoxanthine absorbed by the parasites was then quantified using a scintillation counter. The results were presented graphically and the IC50 value was determined using a fitting function. The value IC50, the ‘inhibition constant’, indicates the value in μMol/l at which 50% parasite growth inhibition occurs (R. E. Desjardins, et al., Antimicrobiol. Agent Chemother. 16, pp. 710-718, 1979; J. D. Chulay, et al., Exp. Parasitol. 55, pp. 138-146, 1983).

[2] = In vitro clearance using human liver microsomes; assay type: in vitro ADME; conditions: human liver microsomes 0.5 mg/ml, 1 μM compound, 37° C., 0-30 min
Protocol: These experiments were performed at Nikem Research (Via Zambeletti 25; Baranzate, Milan, Italy). Test compounds in duplicate at the final concentration of 1 μM were dissolved in DMSO and pre-incubated for 10 min at 37° C. in phosphate buffer pH 7.4, 3 mM MgCl2, with human liver microsomes at the final concentration of 0.5 mg/ml. After the pre-incubation period, reaction was started by adding the cofactor mixture (NADP, Glc6P, G6P-DH); samples were taken at time 0, 5, 10, 15, 20 and 30 min and added to acetonitrile to quench the metabolic reaction, centrifuged and supernatant analysed and quantified by HPLC/MS. A control sample without cofactors was always added in order to check the chemical stability of test compounds. 7-ethoxycoumarin was added as reference standard. A fixed concentration of verapamil was added in every sample as internal standard for HPLC/MS. The concentration of the remaining compound at different times was determined by HPLC/MS. The rate constant, k (min^−1) derived for the exponential decay equation (peak area vs time) was used to calculate the rate of intrinsic clearance (Cli) of the compounds using the following equations: Cli (μl/min/mg compound)=k×V; where: V (μl/mg compound)=incubation volume/mg compound added. In table 3 the clearance (in vitro metabolic stability) classification was as follows: Cli<10=compound stable; Cli between 10 and 60=low metabolism; Cli between 60 and 600=medium metabolism Cli>600=high metabolism.

[3] = Solubility and solubility-range determination in 50 mM phosphate buffer at different pH; assay type: physicochemical; conditions: aqueous buffer, kinetic from dmso stock, 1% DMSO, 23° C., read-out: Solubility or solubility range
Protocol: The compounds were dissolved in DMSO at a concentration of 20 mg/ml. These stock solutions were further diluted 1:1 with DMSO (50 μl solution+50 μl DMSO) in seven steps. Subsequently, these solutions were diluted 1:100 (5 μl DMSO-stock+495 μl 50 mM phosphate buffer) in all four pH buffers (respectively: pH=4; pH=6; pH=7.4; pH=9) resulting in a final DMSO concentration of 1% in the buffers. These dilutions were vigorously mixed and transferred into 96-well reading plate. The plates were incubated in a shaker (600 rpm) at 23° C. for 24 hours. After that, the contents of the wells were mixed with a pipette and optical density (OD) was recorded at wavelengths of 550 nm; 600 nm; 650 nm and 700 nm in the Tecan Sunrise plate reader. The cut-off OD sum for an undissolved concentration of a compound was defined as follows: Cut off OD sum=mean blank OD+0.050 OD. For the determination of the solubility range, the following rule was applied: OD>cut off=>compound not dissolved at this concentration OD<cut-off=>compound dissolved at this concentration For the determination of the solubility, a titration curve (OD/concentration) was prepared and the concentrations were determined based on the measured OD of the mixture supernatant after centrifugation. The solubility values are given in μg/ml (table 3).

| SMILES | IC50 [1] [nM] | In vitro metabolism as determined from Cli [2] | other results |
| --- | --- | --- | --- |
| CN(C)C(=N)c1cccc(NC(=O)Nc2ccc(S(=O)(=O)NCc3ccc(S(N)(=O)=O)cc3)cc2)c1 [Compound 64, N,N-dimethyl-3-(3-(4-(N-(4-sulfamoylbenzyl)sulfamoyl)phenyl)ureido)benzimidamide] | 210 to 990 | low (Cli between 10 and 60=low metabolism) | – |
| CCN1CCN(C(=N)c2cccc(NC(=O)Nc3ccc(S(=O)(=O)NCc4ccc(S(N)(=O)=O)cc4)cc3)c2)CC1 [Compound 37, 4-(3-(3-((4-ethylpiperazin-1-yl)(imino)methyl)phenyl)ureido)-N-(4-sulfamoylbenzyl)benzenesulfonamide] | 20 to 200 | medium (Cli between 60 and 600=medium metabolism) | – |
| N=C(c1cccc(NC(=O)Nc2ccc(S(=O)(=O)NCc3ccc(S(N)(=O)=O)cc3)cc2)c1)N1CCS(=O)(=O)CC1 [Compound 44, 4-(3-(3-((1,1-dioxidothiomorpholino)(imino)methyl)phenyl)ureido)-N-(4-sulfamoylbenzyl)benzenesulfonamide] | 20 to 200 | – | solubility at 24 h ([3]; pH 4, 50 mM phosphate buffer): > 200 µg/mL; solubility at 24 h ([3]; pH 6, 50 mM phosphate buffer): > 200 µg/mL; solubility at 24 h ([3]; pH 7.4, 50 mM phosphate buffer): > 200 µg/mL; solubility at 24 h ([3]; pH 9, 50 mM phosphate buffer): > 200 µg/mL |
| N=C(c1cccc(NC(=O)Nc2ccc(S(=O)(=O)NCc3ccc(S(N)(=O)=O)cc3)cc2)c1)N1CCOCC1 [Compound 43, 4-(3-(3-(imino (morpholino)methyl)phenyl)ureido)-N-(4-sulfamoylbenzyl)benzenesulfonamide] | 20 to 200 | medium (Cli between 60 and 600=medium metabolism) | – |
| CCCCN1CCN(C(=N)c2cccc(NC(=O)Nc3ccc(S(=O)(=O)N4Cc5ccc(S(N)(=O)=O)cc5C4)cc3)c2)CC1 [Compound 41, 2-(4-(3-(3-((4-butylpiperazin-1-yl)(imino)methyl)phenyl)ureido)phenylsulfonyl)isoindoline-5-sulfonamide] | 20 to 200 | medium (Cli between 60 and 600=medium metabolism) | – |
| CCCCN1CCN(C(=N)c2cccc(NC(=O)Nc3ccc(S(=O)(=O)NCc4ccc(S(N)(=O)=O)cc4)cc3)c2)CC1=O [Compound 63, 4-(3-(3-((4-butyl-3-oxopiperazin-1-yl)(imino)methyl)phenyl)ureido)-N-(4-sulfamoylbenzyl)benzenesulfonamide] | < 20 | medium (Cli between 60 and 600=medium metabolism) | – |
| CCCCN1CCN(C(=N)c2cccc(NC(=O)Nc3ccc(S(N)(=O)=O)cc3)c2)CC1 [Compound 1, 4-(3-(3-((4-butylpiperazin-1-yl)(imino)methyl)phenyl)ureido)benzenesulfonamide] | ≥ 1000 | low (Cli between 10 and 60=low metabolism) | – |
| CCCCN1CCN(C(=N)c2cccc(NC(=O)Nc3ccc(S(=O)(=O)Nc4ccc(S(N)(=O)=O)cc4)cc3)c2)CC1 [Compound 23, 4-(3-(3-((4-butylpiperazin-1-yl)(imino)methyl)phenyl)ureido)-N-(4-sulfamoylphenyl)benzenesulfonamide] | 210 to 990 | low (Cli between 10 and 60=low metabolism) | – |
| N=C(c1cccc(NC(=O)Nc2ccc(S(=O)(=O)NCc3ccc(S(N)(=O)=O)cc3)cc2)c1)N1CCN(CC2CC2)CC1 [Compound 66, 4-(3-(3-((4-(cyclopropylmethyl)piperazin-1-yl)(imino)methyl)phenyl)ureido)-N-(4-sulfamoylbenzyl)benzene sulfonamide] | < 20 | medium (Cli between 60 and 600=medium metabolism) | – |
| CN1CCN(C(=N)c2cccc(NC(=O)Nc3ccc(S(=O)(=O)NCc4ccc(S(N)(=O)=O)cc4)cc3)c2)CC1 [Compound 53, 4-(3-(3-(imino(4-methylpiperazin-1-yl)methyl)phenyl)ureido)-N-(4-sulfamoylbenzyl)benzenesulfonamide] | 210 to 990 | low (Cli between 10 and 60=low metabolism) | – |
| CCCCN1CCN(C(=N)c2cccc(NC(=O)Nc3ccc(S(=O)(=O)NCc4ccc(S(N)(=O)=O)s4)cc3)c2)CC1 [Compound 70, 5-((4-(3-(3-((4-butylpiperazin-1-yl)(imino)methyl)phenyl)ureido)phenylsulfonamido)methyl)thiophene-2-sulfonamide] | 20 to 200 | medium (Cli between 60 and 600=medium metabolism) | – |
| CC(C)N1CCN(C(=N)c2cccc(NC(=O)Nc3ccc(S(=O)(=O)NCc4ccc(S(N)(=O)=O)cc4)cc3)c2)CC1 [Compound 54, 4-(3-(3-(imino(4-isopropylpiperazin-1-yl)methyl)phenyl)ureido)-N-(4-sulfamoylbenzyl)benzenesulfonamide] | 20 to 200 | medium (Cli between 60 and 600=medium metabolism) | – |
| C=CCN1CCN(C(=N)c2cccc(NC(=O)Nc3ccc(S(=O)(=O)NCc4ccc(S(N)(=O)=O)cc4)cc3)c2)CC1 [Compound 39, 4-(3-(3-((4-allylpiperazin-1-yl)(imino)methyl)phenyl)ureido)-N-(4-sulfamoylbenzyl)benzenesulfonamide] | < 20 | – | – |
| N=C(c1cccc(NC(=O)Nc2ccc(S(=O)(=O)c3ccc(Br)cc3)cc2)c1)N1CCC(O)CC1 [Compound 5, 1-(4-(4-bromophenylsulfonyl)phenyl)-3-(3-((4-hydroxypiperidin-1-yl)(imino)methyl)phenyl)urea] | 20 to 200 | – | – |
| N=C(c1cccc(NC(=O)Nc2ccc(S(=O)(=O)c3ccc(N)cc3)cc2)c1)N1CCC(O)CC1 [Compound 17, 1-(4-(4-aminophenylsulfonyl)phenyl)-3-(3-((4-hydroxypiperidin-1-yl)(imino)methyl)phenyl)urea] | ≥ 1000 | – | – |
| N=C(c1cccc(NC(=O)Nc2ccc(S(=O)(=O)c3ccc([N+](=O)[O-])cc3)cc2)c1)N1CCC(O)CC1 [Compound 10, 1-(3-((4-hydroxypiperidin-1-yl)(imino)methyl)phenyl)-3-(4-(4-nitrophenylsulfonyl)phenyl)urea] | 20 to 200 | – | – |
| N#CCCN1CCN(C(=N)c2cccc(NC(=O)Nc3ccc(S(=O)(=O)NCc4ccc(S(N)(=O)=O)cc4)cc3)c2)CC1 [Compound 65, 4-(3-(3-((4-(2-cyanoethyl)piperazin-1-yl)(imino)methyl)phenyl)ureido)-N-(4-sulfamoylbenzyl)benzene sulfonamide] | 210 to 990 | medium (Cli between 60 and 600=medium metabolism) | – |
| CCCCN1CCN(C(=N)c2cccc(NC(=O)Nc3ccc(S(=O)(=O)NCc4ccccc4)cc3)c2)CC1 [Compound 36, N-benzyl-4-(3-(3-((4-butylpiperazin-1-yl)(imino)methyl)phenyl)ureido)benzenesulfonamide] | 210 to 990 | – | – |
